Laboratory results from patent publication US20230288403A1, “METHOD FOR INDUCING EXTRACELLULAR TRAP (ET) FORMATION” (Tridek-One Therapeutics, priority 2022, published 2023).
Entries after “also recorded” stand apart in the source; their conditions may differ.

Experiments:
Format in all cases: cell-based
[1] = system: human peripheral blood neutrophils; assay: NET formation by live cell fluorescent microscopy (Sytox Green) with computer-assisted image analysis
Experimental: (§1) Human polyvalent immunoglobulins (or human polyvalent Ig) also referred to as intravenous immunoglobulin or IVIg (Privigen, CSL Behring LLC) or human serum albumin or HSA (Sigma Aldrich—reference: H5667), used as negative control, diluted in coating solution (DPBS Gibco—reference: 14190) were allowed to adsorb for 2 hours at room temperature on high-binding, sterile 96-well plates suitable for fluorescence microscopy (Greiner Bio-One, Frickenhausen, Germany). Unless indicated otherwise, deposits of human polyvalent Ig were obtained with a coating solution (DPBS no calcium, no magnesium (ThermoFisher—reference: 14190) consisting of KCl 2.67 mM, KH2PO4 1.47 mM, NaCl 137.9 mM, Na2HPO4-7H2O 8.06 mM) comprising human polyvalent Ig at a concentration of 100 μg/mL. Similarly, unless indicated otherwise, deposits of HSA were obtained with a coating solution comprising HSA at a concentration of 100 μg/mL. Phorbol-12-myristate-13-acetate or PMA (Sigma Aldrich—reference: P8139) was used as positive control. PMA was added to the culture medium at a final concentration of nM. In some experiments (see FIG. 5A), human polyvalent Ig were added in the culture medium at a final concentration ranging from 3 to 300 μg/mL.
(§2) Neutrophils were isolated from the peripheral blood of healthy human donors by negative magnetic bead selection using a commercially available kit (STEMCELL Technologies—reference: 19666). Isolated neutrophils were then distributed in 96-well plates (Greiner Bio-One, Frickenhausen, Germany), in particular in 96-well plates coated with human polyvalent Ig or HSA as described above, at a concentration of 7.5×10^4 cells per well, corresponding to 10^6 cells/mL of culture medium. Neutrophils were then cultured in HBSS with calcium and magnesium (Gibco—reference: 24020-091) under standard conditions (i.e., humidified incubator 37° C. and 5% CO2). […]
(§3) High-binding, sterile 96-well plates (Greiner Bio-One, Frickenhausen, Germany) were coated with human polyvalent Ig as described in Example 1, using a coating solution comprising human polyvalent Ig at a concentration ranging from 3 to 300 μg/mL, as indicated. If no indication is given, deposits of human polyvalent Ig were obtained with a coating solution comprising human polyvalent Ig at a concentration of 100 μg/mL.
(§4) Where indicated, the SYK inhibitor BAY-61-3606, obtained from Selleckchem (reference: S7006), was added to the culture medium at a final concentration ranging from 0.05 to 5 (0.05, 0.1, 0.5, 1, 5 as indicated). Where indicated, the calcineurin inhibitor FK506 (also known as tacrolimus), obtained from ASTELLAS PHARMA (PROGRAF™ 5 mg/ml), was added to the culture medium at a final concentration ranging from 0.3 to 100 nM (0.3, 1, 3, 10, 30, 100 nM, as indicated). Where indicated, the humanized monoclonal antibody motavizumab directed against the respiratory syncytial virus (RSV), produced as a human IgG4 (by Evitria, Zurich, Switzerland), was added to the culture medium at a final concentration ranging from 1 to 100 μg/mL (1, 3, 10, 30, 100 μg/mL, as indicated). Human IgG4 can engage FcRI (CD64) and enhance the activation of human neutrophils triggered by immobilized immunoglobulins, which is mediated by FcRIIa and FcRIIIb, by the engagement of an additional signaling pathway.
Human peripheral blood neutrophils were isolated and cultured as described in Example 1. In particular, freshly isolated peripheral blood neutrophils were distributed in coated plate as described in Example 1 (7.5×10^4 cells per well, corresponding to 10^6 cells/mL of culture medium) and cultured for the indicated time.
The fluorescent, cell-impermeant, nucleic acid dye Sytox Green was added to the culture medium at a concentration of 1 μM to detect NET formation. ROS (reactive oxygen species) formation was identified by the use of a fluorescent oxidative-sensitive probe (CM-H2DCFDA, ThermoFisher Scientific—reference: C6827). […]

[2] = system: human peripheral blood eosinophils; assay: EET formation by eosinophils, live cell fluorescent microscopy (Sytox Green); details: 5 μM inhibitor; 100 μg/mL of human polyvalent Ig
Experimental: High-binding, sterile 96-well plates (Greiner Bio-One, Frickenhausen, Germany) were coated with human polyvalent Ig as described in Example 1, using a coating solution comprising human polyvalent Ig at a concentration ranging from 10 to 300 μg/mL, as indicated.
Where indicated, the SYK inhibitor BAY-61-3606, obtained from Selleckchem (reference: S7006), was added to the culture medium at a final concentration of 5 μM.
as §2, with “Eosinophils” for “Neutrophils”, “19656).” for “19666).”, “eosinophils” for “neutrophils”, “bovine serum albumin (negative control)” for “HSA”, “1.5×10^4” for “7.5×10^4”, “2×10^5” for “10^6”
Time-lapse images were acquired by live cell fluorescent microscopy. Quantitative time-course measure of EET formation was performed by computer-assisted image analysis (data are expressed as GCU/well).

[3] = system: human peripheral blood neutrophils; assay: ROS formation with the oxidative-sensitive fluorescent probe CM-H2DCFDA, live cell imaging; details: inhibitor 0 to 5 μM; plates coated with 100 μg/mL human polyvalent Ig; 6 hours
Experimental: as §3
as §4, with “Human IgG4 can engage FcRI (CD64) and enhance the activation of human neutrophils triggered by immobilized immunoglobulins, which is mediated by FcRIIa and FcRIIIb, by the engagement of an additional signaling pathway.” left out
Time-lapse images were acquired by live cell fluorescent microscopy. Quantitative time-course measure of ROS and NET formation was performed by computer-assisted image analysis (data are expressed as GCU/well).

[4] = system: human peripheral whole blood; assay: ET formation in diluted whole blood, live cell fluorescent microscopy (Sytox Green); details: 5 μM inhibitor; 20 μg/mL of human polyvalent Ig; whole blood 1/10 dilution
Experimental: High-binding, sterile 96-well plates (Greiner Bio-One, Frickenhausen, Germany) were coated with human polyvalent Ig as described in Example 1, using a coating solution comprising human polyvalent Ig at a concentration ranging from 10 to 80 μg/mL, as indicated.
Where indicated, the SYK inhibitor BAY-61-3606, obtained from Selleckchem (reference: S7006), was added to the whole blood samples diluted in culture medium at a final concentration of 5 μM.
Fresh human peripheral whole blood was collected from healthy donors and diluted ten times (1/10 dilution) in culture medium containing cell-impermeant, nucleic acid dye Sytox Green at a concentration of 1 μM to detect ET formation. Diluted whole blood was then distributed in 96-well plates (Greiner Bio-One, Frickenhausen, Germany), in particular in 96-well plates coated with human polyvalent Ig or bovine serum albumin (negative control) as described above.
Time-lapse images were acquired by live cell fluorescent microscopy. Quantitative time-course measure of ET formation was performed by computer-assisted image analysis (data are expressed as GCU/well).

[5] = system: human peripheral blood neutrophils; assay: NET detection in fixed neutrophils by fluorescence microscopy (Sytox Green, nuclear morphology); details: 4 hours of culture, plate-bound human polyvalent Ig (coating solution 100 μg/mL) or PMA (25 nM) in culture medium
Experimental: as §1, with “300 μg/mL. […]” for “300 μg/mL.”
Images were acquired by fluorescence microscopy in the green channel. […]

[6] = 24-hour live imaging, plate-bound human polyvalent Ig (coating solution 100 μg/mL) or PMA 25 nM

Q: How did the “NET formation induced by immobilized human polyvalent Ig” value ([1]; inhibitor 0 to 5 μM, plates coated with 100 μg/mL human polyvalent Ig, 6 hours) turn out when `COc1ccc(-c2cc3nccn3c(Nc3ncccc3C(N)=O)n2)cc1OC` [BAY-61-3606] was run?
A: decreased

Q: And the “NET formation elicited by motavizumab plus immobilized human polyvalent Ig” value ([1]; inhibitor at a concentration of 5, 100 μg/mL motavizumab and immobilized human polyvalent Ig (100 μg/mL coating))?
A: completely abolishes the NET formation

Q: What about the “EET formation induced by immobilized human polyvalent Ig” value [2] of the same molecule?
A: no EET formation

Q: And the “ROS production induced by immobilized human polyvalent Ig” value [3]?
A: decreased

Q: And the “ET formation induced by immobilized human polyvalent Ig” value [4]?
A: no ET formation

Q: How did the “NET formation rate change” value [1, 6] turn out when `CCCCCCCCCCCCCC(=O)O[C@@H]1[C@@H](C)[C@@]2(O)[C@@H](C=C(CO)C[C@]3(O)C(=O)C(C)=C[C@@H]23)[C@@H]2C(C)(C)[C@]12OC(C)=O` [PMA, phorbol 12-myristate 13-acetate] was run?
A: causes NET formation from all neutrophils at once

Q: What about the “NET formation time course” value [1, 6] of the same molecule?
A: NET induction was visible on almost all neutrophils from 3-hour culture; also recorded: drives the simultaneous formation of NETs from a great number of neutrophils, within as soon as 3 hours of culture

Q: What about the “NET formation (nuclear morphology of neutrophils)” value [5] of the same molecule?
A: most neutrophils displayed signs of NETosis

B1: motavizumab: humanized monoclonal antibody directed against the respiratory syncytial virus (RSV), produced as a human IgG4 (antibody, chains of the INN, looked up, V domains shown)
VH: QVTLRESGPALVKPTQTLTLTCTFSGFSLSTAGMSVGWIRQPPGKALEWLADIWWDDKKHYNPSLKDRLTISKDTSKNQVVLKVTNMDPADTATYYCARDMIFNFYFDVWGQGTTVTVSS
VL: DIQMTQSPSTLSASVGDRVTITCSASSRVGYMHWYQQKPGKAPKLLIYDTSKLASGVPSRFSGSGSGTEFTLTISSLQPDDFATYYCFQGSGYPFTFGGGTKVEIK
modifications: IgG4
notes: humanized monoclonal antibody directed against the respiratory syncytial virus (RSV), produced as a human IgG4
Q: Which results are given for B1?
A: NET formation in presence of immobilized human polyvalent Ig ([1]; antibody 0 to 100 μg/mL in culture medium, plates coated with 100 μg/mL human polyvalent Ig, compared to coated IVIG without motavizumab): drives a proportional increase in the formation of NETs; NET formation in absence of immobilized immunoglobulins ([1]; antibody 0 to 100 μg/mL in culture medium, uncoated 96-well plates): is not able to drive the formation of NETs
